Here are results for 10 molecules from ChEMBL document CHEMBL5576087 (Bioorg Med Chem Lett, 2024).

Calls of active or inactive are those of the source.

The term half-life denotes the time needed for the level to fall by half in the phase considered. A word on the inhibition: it is the change of the read-out against control, counted positive when it falls. What is called IC50 is the concentration at which inhibition is half-maximal.

The test system of one data set is HuH-6. As to the kind of experiment: Effect on SALL4 protein level in human HuH-6 cells at 0.1 uM measured after 16 hrs by Western blot analysis. The class given is functional, cell-based.
In data set [1] the test system is HUVEC. As to the kind of experiment: Antiproliferative activity against human HUVEC cells at 10 uM measured after 48 hrs by CCK-8 method. The class given is toxicity, cell-based.
Data set [2] concerns MM1.S. As to the kind of experiment: Effect on GSPT1 protein level in human MM1.S cells at 0.1 uM measured after 16 hrs by Western blot analysis. It counts as functional, cell-based. (A western blot detects proteins with antibodies after separation by electrophoresis.)
Data set [3] can be described thus: Metabolic stability in human liver microsomes assessed as half life measured upto 60 mins in presence of NADPH by LC/MS analysis. It counts as ADME, Microsome. Background: Microsomes from liver hold many membrane-bound enzymes, among them those of drug oxidation.
Data set [4] concerns MM1.S. As to the kind of experiment: Effect on IKZF3 protein level in human MM1.S cells at 0.1 uM measured after 16 hrs by Western blot analysis. It counts as functional, cell-based.
For data set [5], the system named is MM1.S. As to the kind of experiment: Antiproliferative activity against human MM1.S cells at 10 uM measured after 72 hrs by CCK-8 method. It counts as functional, cell-based. For orientation: Formazan colour is commonly taken as a measure of viable cells.
For data set [6], the system named is HUVEC. As to the kind of experiment: Antiangiogenesis activity in HUVEC cells assessed as inhibition of tube formation at 10 to 100 uM measured after 18 hrs. It counts as functional, cell-based. The note with it: Homo sapiens, dose 10-100 µM.
Data set [7] concerns MM1.S. As to the kind of experiment: Effect on CK1a protein level in human MM1.S cells at 0.1 uM measured after 16 hrs by Western blot analysis. It counts as functional, cell-based.
For another data set, the target named is Protein cereblon (Homo sapiens, UniProt Q96SW2). As to the kind of experiment: Binding affinity to human CRBN TBD (319 to 425 residues) assessed as inhibition constant by MST assay.
Data set [8] deals with HUVEC. As to the kind of experiment: Inhibition of tube formation in HUVEC cells at 100 uM measured after 18 hrs relative to control. It counts as functional. The note with it: Homo sapiens.
Data set [9] relates to MM1.S. As to the kind of experiment: Antiproliferative activity against human MM1.S cells at 100 uM measured after 72 hrs by CCK-8 method. It counts as functional, cell-based.
The test system of data set [10] is HUVEC. As to the kind of experiment: Antiproliferative activity against human HUVEC cells at 100 uM measured after 48 hrs by CCK-8 method. It counts as toxicity, cell-based.
Data set [11] relates to HUVEC. As to the kind of experiment: Antiangiogenesis activity in HUVEC cells assessed as inhibition of tube formation measured after 18 hrs. As to conditions: Homo sapiens. The class given is functional, cell-based.
The test system of data set [12] is HUVEC. As to the kind of experiment: Antiproliferative activity against human HUVEC cells at 10 uM measured after 48 hrs by CCK-8 method relative to control. It counts as toxicity, cell-based.

For the molecule `CC(C)N1C(=O)NC(=O)C(C)(N2C(=O)c3ccccc3C2=O)C1=O` (centres undefined), the outcome with HuH-6, with MM1.S [2], with MM1.S [4], with MM1.S [5], with HUVEC [6] and in the data set on MM1.S [7] was inactive. The Activity entry with HUVEC [1] is “Non-Toxic”. Further, the half-life in data set [3] was 19.3 min. Besides, the Ki entry at Protein cereblon is “Not Active”.
In the case of `O=C1CCC(N2C(=O)c3c(F)c(F)c(F)c(F)c3C2=O)C(=O)N1` (centres undefined), the result with HuH-6, in the data set on MM1.S [2], with MM1.S [4] and in the data set with MM1.S [7] was inactive.
In the case of `CC(C)N1C(=O)NC(=O)C(C)(NC(=O)c2ccccc2)C1=O` (centres undefined), the outcome in the data set with HuH-6, with MM1.S [2], in the data set on MM1.S [4], with MM1.S [5], in the data set on HUVEC [6] and in the data set with MM1.S [7] was inactive. Besides, the Activity result with HUVEC [1] is “Non-Toxic”. In addition, the Ki result on Protein cereblon is reported as “Not Active”.
For the molecule `CCOCCNc1cccc2c1C(=O)N(C1CCC(=O)NC1=O)C2=O` (centres undefined), the inhibition at 100 µM in the data set with HUVEC [8] is 50%.
For `O=C1CCC(NC(=O)c2cc(F)c(F)cc2F)C(=O)N1` (centres undefined), the inhibition entry in the data set on HUVEC [8] was “inactive”.
As to `CC(C)N1C(=O)NC(=O)C(C)(NC(=O)c2cc(F)c(F)c(F)c2F)C1=O` (centres undefined), the result in the data set with HuH-6, in the data set with MM1.S [2], with MM1.S [4], with MM1.S [5], with HUVEC [6] and in the data set on MM1.S [7] was inactive. The Activity result in the data set on HUVEC [1] is on record as “Non-Toxic”. Further, the Ki result on Protein cereblon is recorded as “Not Active”.
In the case of `O=C1CCC(NC(=O)c2cc(F)c(F)c(F)c2F)C(=O)N1` (centres undefined), the outcome with HuH-6, with MM1.S [2], in the data set on MM1.S [4], in the data set on MM1.S [5], in the data set with HUVEC [6] and with MM1.S [7] was inactive. Moreover, the Activity entry in the data set on HUVEC [1] is listed as “Non-Toxic”.
Take `O=C1CCC(NC(=O)c2ccccc2)C(=O)N1` (centres undefined): the result in the data set with HuH-6, with MM1.S [2], with MM1.S [4], with MM1.S [5], with HUVEC [6] and in the data set on MM1.S [7] was inactive. In addition, the Activity result in the data set with HUVEC [1] is given as “Non-Toxic”.
Turning to `O=C1CCC(N2C(=O)c3ccccc3C2=O)C(=O)N1` (centres undefined) [THALIDOMIDE], the result in the data set with HuH-6, in the data set with MM1.S [2], with MM1.S [9], with MM1.S [4], in the data set with HUVEC [6] and with MM1.S [7] was inactive. The Activity result in the data set on HUVEC [10] is “Non-Toxic”.
As to `CC(C)N1C(=O)NC(=O)C(C)(N2C(=O)c3c(F)c(F)c(F)c(F)c3C2=O)C1=O` (centres undefined), the result with HuH-6, in the data set with MM1.S [2], in the data set on MM1.S [4] and with MM1.S [7] was inactive. The IC50 with HUVEC [11] was 2800 nM. The Ki entry at Protein cereblon was “Not Active”. For the same molecule, the Activity in the data set with HUVEC [12] is more than 95%.
